Data on 13 molecules can be found in PubChem BioAssay (NCI).

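Assay format: 96-well plates, 48-hour exposure. TGI denotes the concentration required for complete inhibition of growth.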

Test systems include K-562 leukemia; OVCAR-4 ovarian; HCC-2998 colon; RXF 393 renal; UACC-62 melanoma; U251 CNS; A549 NSCLC; 786-0 renal; OVCAR-5 ovarian; MALME-3M melanoma; BT-549 breast; MCF7 breast; T-47D breast.
What all share (assay): DTP human tumour cell line panel, 48 h

`COC1C=COC2(C)Oc3c(C)c(O)c4c(O)c(c(/C=N/N5CCN(N)CC5)c(O)c4c3C2=O)NC(=O)C(C)=CC=CC(C)C(O)C(C)C(O)C(C)C(OC(C)=O)C1C` (stereo unspecified): the TGI in the assay with K-562 leukemia, in the assay on OVCAR-4 ovarian, with HCC-2998 colon, with RXF 393 renal, in the assay with UACC-62 melanoma and with U251 CNS was greater than 100 µM each time. Moreover, the TGI in the assay on A549 NSCLC, with 786-0 renal, in the assay with OVCAR-5 ovarian and in the assay with MALME-3M melanoma was greater than 100 µM throughout.

As for `Nc1cc(N2CCCC2)nc(=O)n1-c1ccccc1`, the TGI – broadly, the concentration giving total growth inhibition – with K-562 leukemia is greater than 100 µM; with OVCAR-4 ovarian it was greater than 100 µM; in the assay on HCC-2998 colon, 75.6 µM; with U251 CNS, greater than 100 µM; with BT-549 breast it was greater than 100 µM; in the assay on A549 NSCLC it was greater than 100 µM. Moreover, the TGI in the assay on 786-0 renal, in the assay on MCF7 breast, in the assay on OVCAR-5 ovarian and in the assay with MALME-3M melanoma was greater than 100 µM in each case.

On to `Oc1ccc(N=C2CCC(=C(c3ccccc3)c3ccc(Nc4ccc(O)cc4)cc3)CC2)cc1`, for which the total growth inhibition concentration (TGI) in the assay on K-562 leukemia, in the assay on OVCAR-4 ovarian, with HCC-2998 colon, in the assay on RXF 393 renal, in the assay with UACC-62 melanoma and in the assay on U251 CNS was greater than 100 µM in each case. In addition, the TGI with A549 NSCLC, with 786-0 renal, with MCF7 breast and with OVCAR-5 ovarian was greater than 100 µM each time.

Regarding `CC(C)(C)OC(=O)NCCc1cccc2c1oc1c(CCC(=O)O)cccc12`, the TGI in the assay on K-562 leukemia, in the assay on OVCAR-4 ovarian, in the assay with HCC-2998 colon, with RXF 393 renal, with UACC-62 melanoma and with U251 CNS was greater than 100 µM each time. Further, the total growth inhibition concentration (TGI) in the assay on A549 NSCLC, with 786-0 renal, in the assay on OVCAR-5 ovarian and in the assay with MALME-3M melanoma was greater than 100 µM in each case.

Consider `CCOC(=O)[C@@]12C[C@](/C=C/OC)(O[Si](C)(C)C)[C@@]13c1cc(OC)c(OC)cc1CCN3C(=O)C2O` (stereo partly specified), for which the TGI with K-562 leukemia, in the assay with OVCAR-4 ovarian, in the assay on RXF 393 renal, in the assay on UACC-62 melanoma, in the assay on U251 CNS and with A549 NSCLC was greater than 100 µM throughout. The total growth inhibition concentration (TGI) with 786-0 renal, in the assay on MCF7 breast, with OVCAR-5 ovarian, with MALME-3M melanoma and with T-47D breast was greater than 100 µM each time.

On to `CN(N)c1cc(=O)[nH]c(=O)[nH]1`, for which the TGI in the assay with K-562 leukemia was greater than 100 µM; with OVCAR-4 ovarian, greater than 100 µM; in the assay on HCC-2998 colon, greater than 100 µM; with UACC-62 melanoma, greater than 100 µM; in the assay on BT-549 breast it was 50.6 µM; in the assay on A549 NSCLC it was greater than 100 µM. The TGI with 786-0 renal, with MALME-3M melanoma and in the assay with T-47D breast was greater than 100 µM each time.

`O=S(=O)(O)c1ccc(N=Nc2c(O)ccc3cc(Br)ccc23)cc1`: the concentration for total growth inhibition (TGI) with OVCAR-4 ovarian, in the assay with RXF 393 renal, in the assay on UACC-62 melanoma, in the assay on U251 CNS, in the assay on BT-549 breast and with A549 NSCLC was greater than 100 µM each time. Also, the TGI with 786-0 renal, in the assay with OVCAR-5 ovarian, in the assay on MALME-3M melanoma and in the assay on T-47D breast was greater than 100 µM in each case.

In the case of `COCCCNC(=O)C1=C(C)NC(C)=C(C(=O)NCCCOC)C1`, the TGI with K-562 leukemia, in the assay on OVCAR-4 ovarian, with HCC-2998 colon, in the assay with RXF 393 renal, with UACC-62 melanoma and in the assay with U251 CNS was greater than 100 µM throughout. Besides, the TGI in the assay on A549 NSCLC is greater than 100 µM; with 786-0 renal, greater than 100 µM; in the assay with MCF7 breast it was greater than 100 µM; in the assay with OVCAR-5 ovarian, greater than 100 µM; in the assay on MALME-3M melanoma it was 41.2 µM; in the assay with T-47D breast, greater than 100 µM.

`CN(C)S(=O)(=O)/N=C/c1cccc(/C=N/S(=O)(=O)N(C)C)c1`: the TGI with K-562 leukemia, with OVCAR-4 ovarian, in the assay on HCC-2998 colon, in the assay with UACC-62 melanoma, with U251 CNS and with BT-549 breast was greater than 100 µM throughout. Further, the TGI in the assay with A549 NSCLC, in the assay with 786-0 renal, with MCF7 breast, in the assay on OVCAR-5 ovarian and with T-47D breast was greater than 100 µM in each case.

`CCN(CC)CCNC(=O)c1cc2cc(NC(=O)c3cc4cc(NC(=O)c5cc6cc(N)ccc6[nH]5)ccc4[nH]3)ccc2[nH]1`: the TGI in the assay with K-562 leukemia, in the assay with OVCAR-4 ovarian, with HCC-2998 colon, with RXF 393 renal, in the assay with UACC-62 melanoma and in the assay with U251 CNS was greater than 100 µM throughout. In addition, the concentration for total growth inhibition (TGI) with BT-549 breast, in the assay with A549 NSCLC, with 786-0 renal, in the assay on OVCAR-5 ovarian, with MALME-3M melanoma and in the assay on T-47D breast was greater than 100 µM throughout.

For `c1cc2c(c(NC3=NCCO3)c1)CCC2`, the total growth inhibition concentration (TGI) in the assay with K-562 leukemia, in the assay on OVCAR-4 ovarian, in the assay on RXF 393 renal, in the assay with UACC-62 melanoma, with U251 CNS and with A549 NSCLC was greater than 100 µM each time. Further, the TGI with 786-0 renal, with MCF7 breast, in the assay with OVCAR-5 ovarian, with MALME-3M melanoma and in the assay with T-47D breast was greater than 100 µM in each case.

For the molecule `COC1=CCC=C(C[C@@H]2NCCc3cc(OC)c(OC)cc32)C1`, the total growth inhibition concentration (TGI) with K-562 leukemia, in the assay on OVCAR-4 ovarian, in the assay on HCC-2998 colon, with RXF 393 renal, in the assay with UACC-62 melanoma and in the assay on U251 CNS was greater than 100 µM throughout. The TGI in the assay on A549 NSCLC, in the assay with 786-0 renal, with OVCAR-5 ovarian and with MALME-3M melanoma was greater than 100 µM each time.

With `CC(C)(C)Nc1noc(=O)n1C(C)(C)C`, the TGI with K-562 leukemia, in the assay with OVCAR-4 ovarian, in the assay with RXF 393 renal, in the assay on UACC-62 melanoma, with U251 CNS and in the assay on A549 NSCLC was greater than 100 µM each time. Further, the concentration for total growth inhibition (TGI) with 786-0 renal, with MCF7 breast, in the assay with OVCAR-5 ovarian and in the assay on MALME-3M melanoma was greater than 100 µM throughout.
